# Experimental data taken from article PMC9530166, “Allosteric regulation of glycogen breakdown by the second messenger cyclic di-GMP” (Nature Communications, 2022).
# Entries after “also recorded” stand apart in the source; their conditions may differ.
# What was measured:
# His6-GlgXDLVR(212-215) = assay: nanoDSF thermal shift assay, RLVD212-215 swap mutant; type: binding, Streptomyces venezuelae; conditions: His6-GlgXDLVR(212-215) mutant
# Description: Arginine and aspartic acid arranged in an RxxD motif are often found as c-di-GMP binding signatures in effector proteins[28],[34]. […] To determine if either of these motifs are involved in c-di-GMP binding, we swapped the arginine and aspartic acid residues in the two motifs and purified His6-GlgXDETR(49-52) and His6-GlgXDLVR(212-215).
# For label-free thermal shift assay experiments, 10 μM purified protein in 25 mM Tris pH 8, 150 mM NaCl, 2.5% (v/v) glycerol, and 5 mM MgCl2 was incubated without or with (1 mM) of nonlabeled c-di-GMP or c-di-AMP, respectively, at rt for 10 min. Reactions were subsequently analyzed in a Tycho NT.6 (NanoTemper Technologies) device with a 30 K/min thermal ramp and the internal fluorescence at 330 and 350 nm was recorded. Data analysis and calculation of derivatives was done using the internal evaluation features of the Tycho instrument.
# 217 Supplementary Fig. 5: NanoDSF assays with mutagenized His6-GlgX variants. (a) Swap of the
# 219 This was confirmed by DRaCALA, right. For DRaCALA assays, 15 µg of purified E. coli His6-GlgX
# 220 or His6-Vnz25270, respectively, were mixed with 0.5 µl of [32P]-c-di-GMP (Hartmann Analytic
# 221 GmbH, Braunschweig) in binding buffer (25 mM Tris pH 8.0, 150 mM NaCl, 2.5% (v/v) glycerol
# 222 and 5 mM MgCl2). […]
# 223 air dried for 10 min and analyzed by phosphorimaging. […]
# His6-GlgX = assay: Bicinchoninic acid (BCA) reducing-end enzyme assay, wild-type GlgX; type: biochemical, Streptomyces venezuelae; conditions: for stimulation of GlgX hydrolysis of substrate: 1 µM His6-GlgX, 50 µM c-di-GMP
# Description: Glycogen debranching enzymes hydrolyze α-(1→6)-linked glucan branches, producing malto-oligosaccharides with reducing ends[7]. The bicinchoninic acid (BCA) assay allows accurate photometric determination of reducing ends from oligosaccharides and is based on the reduction of Cu^2+ to Cu^+. A purple copper bicinchoninate complex with an absorbance maximum at 562 nm forms from Cu^+ and bicinchoninate. […] In addition, we tested the effect of c-di-GMP on GlgX activity by using polysaccharides with different degrees of α-(1→6)-linked glucans as a substrate (Fig. 2b). While glycogen contains α-(1→6)-linked glucan branches every 8–10 residue, amylose is essentially an unbranched chain of α−1,4-linked glucose subunits. Amylopectin is composed of α−1,4-linked glucose units with α-(1→6)-linkages at intervals of ∼20 units. Pullulan is a polysaccharide polymer consisting of maltotriose units in which the three glucose units are connected by α−1,4-glycosidic bonds. Consecutive maltotriose units are linked by a α−1,6-glycosidic bond.
# (§1) Fig. 2 c-di-GMP stimulates glycogen breakdown activity of GlgX in vitro. a Bicinchoninic acid (BCA) in vitro enzyme assay. The purple copper bicinchoninate complex indicating GlgX-mediated generation of reducing ends in glycogen was quantified by photometric measurements at 562 nm. A562 values were converted into reducing ends [µM glucose equivalents] based on D-glucose as a standard. Reactions contained 0.05% (w/v) glycogen from rabbit, 1 µM GlgX and increasing concentrations of c-di-GMP (0–100 µM). Source data are provided as a Source data file. b BCA assay containing 0.05% of either glycogen from rabbit, pullulan, amylopectin from maize or amylose from potato as substrates. Where appropriate, 1 µM GlgX or 50 µM c-di-GMP were added to the reaction samples. Source data are provided as a Source data file. c BCA assay as in a with or without c-di-GMP (50 µM), 0.05% glycogen from rabbit (S) and 1 µM Vnz25270, GlgX, the active site mutants GlgXD342A, GlgXE378A, GlgXD342A+E378A, or the c-di-GMP-binding mutant variant GlgXDETR49-52 as indicated. The experiment was performed three times, each time with two technical replicates. The data points represent the mean ± SD of six data points. Source data are provided as a Source data file.
# Hydrolysis of carbohydrates was assessed in vitro by measuring the accumulation of reducing sugar ends using the BCA assay[42] and D-glucose as a standard for calibration (Supplementary Fig. 11). Purified enzyme was diluted to […] in 20 mM (N-2-hydroxyethylpiperazine-N′−2-ethanesulfonic acid) HEPES (pH 7.5; ionic strength, 160 mM [adjusted with NaCl]) containing 10 mM MgCl2 and […] c-di-GMP (BioLog). Samples were incubated at rt for 5 min and reactions were initiated by the addition of 0.05% of the relevant carbohydrate provided by Sigma-Aldrich: glycogen from rabbit (cat. no G8876); amylose from potato (cat. no A0512); amylopectin from maize (cat. no. 10120); and pullulan (P4516). The mixture was incubated at 37 °C in a heat block for 1 h. Next, an equal volume of BCA reagent solution (250 mM Na2CO3; 144 mM NaHCO3; 2.5 mM sodium bicinconinic acid (Sigma); 6 mM L-serine (Roth); 2.5 mM CuSO4 x 5 H2O (Roth)) was added, reactions were vortexed vigorously and incubated at 80 °C in a heat block for 30 min. Assay mixtures were then cooled to rt. 125 μl sample aliquots were transferred in duplicates to a 96 well plate and the absorbance at 562 nm was measured using a plate reader.
# His6-GlgXD342A = assay: BCA reducing-end enzyme assay, GlgXD342A; type: biochemical, Streptomyces venezuelae; conditions: 50 µM c-di-GMP, 0.05% glycogen from rabbit, 1 µM enzyme
# Description: as §1, with “The experiment was performed three times, each time with two technical replicates. The data points represent the mean ± SD of six data points. Source data are provided as a Source data file.” left out
# (§2) Hydrolysis of carbohydrates was assessed in vitro by measuring the accumulation of reducing sugar ends using the BCA assay[42] and D-glucose as a standard for calibration (Supplementary Fig. 11). […] 125 μl sample aliquots were transferred in duplicates to a 96 well plate and the absorbance at 562 nm was measured using a plate reader.
# His6-GlgXDETR49-52 = assay: BCA reducing-end enzyme assay, GlgXDETR49-52; type: biochemical, Streptomyces venezuelae; conditions: 50 µM c-di-GMP, 0.05% glycogen from rabbit, 1 µM enzyme
# Description: as §1, with “The experiment was performed three times, each time with two technical replicates. The data points represent the mean ± SD of six data points. Source data are provided as a Source data file.” left out
# as §2
# His6-Vnz25270 = assay: BCA reducing-end enzyme assay, Vnz25270; type: biochemical, Streptomyces venezuelae; conditions: 50 µM c-di-GMP, 0.05% glycogen from rabbit, 1 µM enzyme
# Description: as §1, with “The experiment was performed three times, each time with two technical replicates. The data points represent the mean ± SD of six data points. Source data are provided as a Source data file.” left out
# as §2
smiles,measurement,setting,value
"Nc1nc2c(ncn2[C@@H]2O[C@@H]3CO[P@](=O)(O)O[C@H]4[C@@H](O)[C@H](n5cnc6c(=O)[nH]c(N)nc65)O[C@@H]4CO[P@](=O)(O)O[C@H]3[C@H]2O)c(=O)[nH]1 [c-di-GMP, bis-(3′−5′)-cyclic diguanosine monophosphate]",shift in melting/unfolding temperature by c-di-GMP,His6-GlgXDLVR(212-215),still allows ligand binding; also recorded: still caused a shift
same,c-di-GMP concentration with saturating enzymatic activity,"His6-GlgX; 0.05% glycogen from rabbit, 1 µM GlgX, c-di-GMP 3.125–100 µM",50 µM
same,stimulation of GlgX hydrolysis of substrate,His6-GlgX; substrate 0.05% amylopectin,stimulates
same,stimulation of GlgX hydrolysis of substrate,His6-GlgX; substrate 0.05% amylose,no stimulation
same,stimulation of GlgX hydrolysis of substrate,His6-GlgX; substrate 0.05% glycogen,stimulates
same,stimulation of GlgX hydrolysis of substrate,His6-GlgX; substrate 0.05% pullulan,stimulates
same,stimulation of enzyme activity by c-di-GMP,His6-GlgXD342A,could not be stimulated
same,effect of c-di-GMP on hydrolytic activity,His6-GlgXDETR49-52,remained at basal levels
same,effect of c-di-GMP on hydrolytic activity,His6-Vnz25270,remained at basal levels
